A short description of the data set: activity coefficient (dimensionless); of the first substance listed, at infinite dilution; xn = mol fraction of the nth substance listed. To be noted: Liquid, Chromatography, x1 = 0.

Numbers after ± are expanded uncertainties.

Take `CC#N` [acetonitrile] + CCCOC[n+]1ccn(Cc2ccccc2)c1.N#C[N-]C#N: the activity coefficient reads like this: (323.15 K) 0.72 ± 0.05; (333.15 K) 0.76 ± 0.05; (343.15 K) 0.77 ± 0.05.

Take `CC#N` [acetonitrile] + CCCOC[n+]1ccn(Cc2ccccc2)c1.O=S(=O)([N-]S(=O)(=O)C(F)(F)F)C(F)(F)F: the activity coefficient (323.15 K) amounted to 0.39 ± 0.03, the activity coefficient (333.15 K) came out at 0.34 ± 0.03 and the activity coefficient (343.15 K) turned out to be 0.34 ± 0.03.

As to `CC#N` [acetonitrile] + CN(C)c1cc[n+](COCCCOC[n+]2ccc(N(C)C)cc2)cc1.O=S(=O)([N-]S(=O)(=O)C(F)(F)F)C(F)(F)F.O=S(=O)([N-]S(=O)(=O)C(F)(F)F)C(F)(F)F, the activity coefficient by setting is: (323.15 K) 0.37 ± 0.03; (333.15 K) 0.37 ± 0.03; (343.15 K) 0.37 ± 0.03.

As to `CC#N` [acetonitrile] + Cn1cc[n+](COCCCOC[n+]2ccn(C)c2)c1.N#C[N-]C#N.N#C[N-]C#N, the activity coefficient runs as follows: (323.15 K) 0.68 ± 0.05; (333.15 K) 0.68 ± 0.05; (343.15 K) 0.69 ± 0.05.

In the case of `CC#N` [acetonitrile] + Cn1cc[n+](COCCCOC[n+]2ccn(C)c2)c1.O=S(=O)([N-]S(=O)(=O)C(F)(F)F)C(F)(F)F.O=S(=O)([N-]S(=O)(=O)C(F)(F)F)C(F)(F)F, the activity coefficient by setting is: (323.15 K) 0.28 ± 0.03; (333.15 K) 0.28 ± 0.03; (343.15 K) 0.24 ± 0.03.

In the case of `CC#N` [acetonitrile] + N#C[N-]C#N.N#C[N-]C#N.c1ccc(Cn2cc[n+](COCCCOC[n+]3ccn(Cc4ccccc4)c3)c2)cc1, the activity coefficient reads like this: (323.15 K) 0.99 ± 0.06; (333.15 K) 0.97 ± 0.06; (343.15 K) 0.98 ± 0.06.

Take `c1ccccc1` [benzene] + CCCCCCCCn1cc[n+](COCCC)c1C.N#C[N-]C#N: the activity coefficient (323.15 K) came to 1.39 ± 0.09, the activity coefficient (333.15 K) was 1.23 ± 0.08 and the activity coefficient (343.15 K) is 1.07 ± 0.07.

Regarding `c1ccccc1` [benzene] + CCCCCCCCn1cc[n+](COCCC)c1C.O=S(=O)([N-]S(=O)(=O)C(F)(F)F)C(F)(F)F, the activity coefficient turned out to be 0.6 ± 0.04 (323.15 K), 0.59 ± 0.04 (333.15 K) and 0.59 ± 0.04 (343.15 K).

As to `c1ccccc1` [benzene] + CCCCCCCCn1cc[n+](COCCCOC[n+]2ccn(CCCCCCCC)c2C)c1C.N#C[N-]C#N.N#C[N-]C#N, the activity coefficient is, setting by setting: (323.15 K) 0.7 ± 0.05; (333.15 K) 0.71 ± 0.05; (343.15 K) 0.71 ± 0.05.

As to `c1ccccc1` [benzene] + CCCCCCCCn1cc[n+](COCCCOC[n+]2ccn(CCCCCCCC)c2C)c1C.O=S(=O)([N-]S(=O)(=O)C(F)(F)F)C(F)(F)F.O=S(=O)([N-]S(=O)(=O)C(F)(F)F)C(F)(F)F, the activity coefficient (323.15 K) is 0.42 ± 0.04, the activity coefficient (333.15 K) is 0.41 ± 0.03 and the activity coefficient (343.15 K) stood at 0.41 ± 0.03.

`c1ccccc1` [benzene] + CCCOC[n+]1ccc(N(C)C)cc1.O=S(=O)([N-]S(=O)(=O)C(F)(F)F)C(F)(F)F: the activity coefficient by setting is: (323.15 K) 0.74 ± 0.05; (333.15 K) 0.78 ± 0.05; (343.15 K) 0.78 ± 0.05.

As to `c1ccccc1` [benzene] + CCCOC[n+]1ccn(C)c1.F[B-](F)(F)F, the activity coefficient was 3.51 ± 0.24 (323.15 K), 3.45 ± 0.23 (333.15 K) and 3.46 ± 0.24 (343.15 K).

For `c1ccccc1` [benzene] + CCCOC[n+]1ccn(C)c1.N#C[N-]C#N, the activity coefficient is, setting by setting: (323.15 K) 2.25 ± 0.15; (333.15 K) 2.27 ± 0.15; (343.15 K) 2.29 ± 0.16.

For `c1ccccc1` [benzene] + CCCOC[n+]1ccn(C)c1.O=S(=O)([N-]S(=O)(=O)C(F)(F)F)C(F)(F)F, the activity coefficient is, setting by setting: (323.15 K) 1.2 ± 0.08; (333.15 K) 1.17 ± 0.07; (343.15 K) 1.17 ± 0.07.

For the compound `c1ccccc1` [benzene] + CCCOC[n+]1ccn(Cc2ccccc2)c1.F[B-](F)(F)F, the activity coefficient reads like this: (323.15 K) 2.01 ± 0.14; (333.15 K) 2 ± 0.14; (343.15 K) 1.99 ± 0.14.

As for `c1ccccc1` [benzene] + CCCOC[n+]1ccn(Cc2ccccc2)c1.N#C[N-]C#N, the activity coefficient runs as follows: (323.15 K) 1.51 ± 0.1; (333.15 K) 1.5 ± 0.1; (343.15 K) 1.5 ± 0.1.

As to `c1ccccc1` [benzene] + CCCOC[n+]1ccn(Cc2ccccc2)c1.O=S(=O)([N-]S(=O)(=O)C(F)(F)F)C(F)(F)F, the activity coefficient came to 0.81 ± 0.05 (323.15 K), 0.71 ± 0.05 (333.15 K) and 0.71 ± 0.05 (343.15 K).

In the case of `c1ccccc1` [benzene] + CN(C)c1cc[n+](COCCCOC[n+]2ccc(N(C)C)cc2)cc1.O=S(=O)([N-]S(=O)(=O)C(F)(F)F)C(F)(F)F.O=S(=O)([N-]S(=O)(=O)C(F)(F)F)C(F)(F)F, the activity coefficient (323.15 K) was 0.66 ± 0.05, the activity coefficient (333.15 K) stood at 0.67 ± 0.05 and the activity coefficient (343.15 K) turned out to be 0.68 ± 0.05.

For the compound `c1ccccc1` [benzene] + Cn1cc[n+](COCCCOC[n+]2ccn(C)c2)c1.N#C[N-]C#N.N#C[N-]C#N, the activity coefficient runs as follows: (323.15 K) 3.03 ± 0.21; (333.15 K) 3.05 ± 0.21; (343.15 K) 3.08 ± 0.21.

As to `c1ccccc1` [benzene] + Cn1cc[n+](COCCCOC[n+]2ccn(C)c2)c1.O=S(=O)([N-]S(=O)(=O)C(F)(F)F)C(F)(F)F.O=S(=O)([N-]S(=O)(=O)C(F)(F)F)C(F)(F)F, the activity coefficient (323.15 K) was determined as 0.94 ± 0.06, the activity coefficient (333.15 K) turned out to be 0.94 ± 0.06 and the activity coefficient (343.15 K) was 0.9 ± 0.06.

In the case of `c1ccccc1` [benzene] + N#C[N-]C#N.N#C[N-]C#N.c1ccc(Cn2cc[n+](COCCCOC[n+]3ccn(Cc4ccccc4)c3)c2)cc1, the activity coefficient was found to be 3.09 ± 0.21 (323.15 K), 2.95 ± 0.2 (333.15 K) and 2.92 ± 0.2 (343.15 K).

In the case of `CCCCO` [butan-1-ol] + CCCCCCCCn1cc[n+](COCCC)c1C.O=S(=O)([N-]S(=O)(=O)C(F)(F)F)C(F)(F)F, the activity coefficient by setting is: (323.15 K) 5.47 ± 0.37; (333.15 K) 4.33 ± 0.3; (343.15 K) 4.28 ± 0.29.

Regarding `CCCCO` [butan-1-ol] + CCCCCCCCn1cc[n+](COCCCOC[n+]2ccn(CCCCCCCC)c2C)c1C.N#C[N-]C#N.N#C[N-]C#N, the activity coefficient was 7.49 ± 0.51 (323.15 K), 5.96 ± 0.41 (333.15 K) and 4.81 ± 0.33 (343.15 K).

Consider `CCCCO` [butan-1-ol] + CCCCCCCCn1cc[n+](COCCCOC[n+]2ccn(CCCCCCCC)c2C)c1C.O=S(=O)([N-]S(=O)(=O)C(F)(F)F)C(F)(F)F.O=S(=O)([N-]S(=O)(=O)C(F)(F)F)C(F)(F)F, for which the activity coefficient reads like this: (323.15 K) 0.84 ± 0.05; (333.15 K) 0.74 ± 0.05; (343.15 K) 0.69 ± 0.05.

As for `CCCCO` [butan-1-ol] + CCCOC[n+]1ccc(N(C)C)cc1.O=S(=O)([N-]S(=O)(=O)C(F)(F)F)C(F)(F)F, the activity coefficient came out at 2.25 ± 0.15 (323.15 K), 2.04 ± 0.14 (333.15 K) and 1.85 ± 0.12 (343.15 K).

For `CCCCO` [butan-1-ol] + CCCOC[n+]1ccn(C)c1.F[B-](F)(F)F, the activity coefficient by setting is: (323.15 K) 4.61 ± 0.31; (333.15 K) 4.17 ± 0.28; (343.15 K) 3.76 ± 0.26.

Take `CCCCO` [butan-1-ol] + CCCOC[n+]1ccn(C)c1.N#C[N-]C#N: the activity coefficient worked out at 1.37 ± 0.09 (323.15 K), 1.32 ± 0.09 (333.15 K) and 1.27 ± 0.08 (343.15 K).

`CCCCO` [butan-1-ol] + CCCOC[n+]1ccn(C)c1.O=S(=O)([N-]S(=O)(=O)C(F)(F)F)C(F)(F)F: the activity coefficient runs as follows: (323.15 K) 2.37 ± 0.16; (333.15 K) 2.09 ± 0.14; (343.15 K) 1.89 ± 0.13.

As for `CCCCO` [butan-1-ol] + CCCOC[n+]1ccn(Cc2ccccc2)c1.F[B-](F)(F)F, the activity coefficient reads like this: (323.15 K) 3 ± 0.2; (333.15 K) 2.59 ± 0.18; (343.15 K) 2.39 ± 0.16.

Consider `CCCCO` [butan-1-ol] + CCCOC[n+]1ccn(Cc2ccccc2)c1.N#C[N-]C#N, for which the activity coefficient reads like this: (323.15 K) 0.93 ± 0.06; (333.15 K) 0.88 ± 0.06; (343.15 K) 0.82 ± 0.05.

Take `CCCCO` [butan-1-ol] + CN(C)c1cc[n+](COCCCOC[n+]2ccc(N(C)C)cc2)cc1.O=S(=O)([N-]S(=O)(=O)C(F)(F)F)C(F)(F)F.O=S(=O)([N-]S(=O)(=O)C(F)(F)F)C(F)(F)F: the activity coefficient worked out at 1.95 ± 0.13 (323.15 K), 1.64 ± 0.11 (333.15 K) and 1.58 ± 0.1 (343.15 K).

As to `CCCCO` [butan-1-ol] + Cn1cc[n+](COCCCOC[n+]2ccn(C)c2)c1.N#C[N-]C#N.N#C[N-]C#N, the activity coefficient runs as follows: (323.15 K) 2.21 ± 0.15; (333.15 K) 1.9 ± 0.13; (343.15 K) 1.79 ± 0.12.

For the compound `CCCCO` [butan-1-ol] + Cn1cc[n+](COCCCOC[n+]2ccn(C)c2)c1.O=S(=O)([N-]S(=O)(=O)C(F)(F)F)C(F)(F)F.O=S(=O)([N-]S(=O)(=O)C(F)(F)F)C(F)(F)F, the activity coefficient reads like this: (323.15 K) 2.02 ± 0.14; (333.15 K) 1.85 ± 0.12; (343.15 K) 1.64 ± 0.11.

For `CCCCO` [butan-1-ol] + N#C[N-]C#N.N#C[N-]C#N.c1ccc(Cn2cc[n+](COCCCOC[n+]3ccn(Cc4ccccc4)c3)c2)cc1, the activity coefficient by setting is: (323.15 K) 1.8 ± 0.12; (333.15 K) 1.68 ± 0.11; (343.15 K) 1.61 ± 0.11.

As for `CCC(C)=O` [butanone] + CCCCCCCCn1cc[n+](COCCC)c1C.N#C[N-]C#N, the activity coefficient (323.15 K) was found to be 0.7 ± 0.05, the activity coefficient (333.15 K) is 0.64 ± 0.04 and the activity coefficient (343.15 K) was determined as 0.55 ± 0.04.

Regarding `CCC(C)=O` [butanone] + CCCCCCCCn1cc[n+](COCCC)c1C.O=S(=O)([N-]S(=O)(=O)C(F)(F)F)C(F)(F)F, the activity coefficient is, setting by setting: (323.15 K) 0.36 ± 0.03; (333.15 K) 0.33 ± 0.03; (343.15 K) 0.3 ± 0.03.

In the case of `CCC(C)=O` [butanone] + CCCCCCCCn1cc[n+](COCCCOC[n+]2ccn(CCCCCCCC)c2C)c1C.N#C[N-]C#N.N#C[N-]C#N, the activity coefficient by setting is: (323.15 K) 0.56 ± 0.04; (333.15 K) 0.5 ± 0.04; (343.15 K) 0.46 ± 0.04.

Source of the values: the NIST ThermoML archive (doi:10.1016/j.fluid.2014.11.020).
